Measurements as given in patent publication US20140193341A1, “HUMAN INDUCED NEURONAL CELLS” (priority 2011, published 2014).
“Also recorded” adds a separate entry of the source.

Columns and labels:
Type in all cases: cell-based, human
[1] = system: Na+ channel
[2] = system: sodium channel
[3] = system: AMPA and NMDA glutamatergic receptors; experiment: Glutamate puff evoked postsynaptic currents in hiN cells; conditions: glutamate 1 mM puff, NBQX 20 μM and APV 50 μM applied together
[4] = system: hiN cells integrated into host brain; experiment: Voltage-clamp recording of transplanted hiN cells in acutely prepared mouse brain slices; conditions: for spontaneous excitatory postsynaptic currents (sEPSCs) under glutamatergic block: NBQX 20 μM and APV 50 μM
[5] = system: glutamatergic receptor; experiment: Spontaneous postsynaptic currents of hiN cells in murine glial coculture; conditions: hiN cells held at −70 mV, murine glial monolayer coculture; NBQX/APV bath application
[6] = system: secreted Aβ40 and Aβ42; experiment: Aβ40/Aβ42 sandwich ELISA of hiN cell culture media with ibuprofen treatment; conditions: ibuprofen 250 μM
Procedure: sAPPβ ELISA was performed using BetaMar sAPP Beta ELISA, according to the manufacturer's instruction. Aβ quantification was performed by ELISAs (Cirrito et al., 2003). Media was conditioned for 48 hr prior to harvesting. Samples were analyzed for Aβ40 or Aβ42 using specific sandwich ELISAs. Briefly, Aβ40, and Aβ42 were captured using monoclonal antibodies targeted against amino acids 35-40 (HJ2.0), or 33-42 (HJ7.4) of Aβ, respectively. The antibodies HJ2.0, HJ5.1 and HJ7.4 were used. For Aβ40 and Aβ42 assays, a biotinylated central domain monoclonal antibody (HJ5.1) followed by streptavidin-poly-HRP-40 was used for detection. Assays were developed using Super Slow ELISA TMB and read on a VersaMax ELISA Microplate Reader. Aβ40, and Aβ42 standard curves were generated using purified peptides. The amount of Aβ was normalized to the cell density per well (relative to UND line as indicated in legend), and was expressed as pg/ml.

[7] = system: GABA receptors; experiment: GABA puff evoked currents in hiN cells; conditions: GABA 1 mM puff, picrotoxin 50 μM
[8] = system: γ-secretase; experiment: Aβ ELISA of media from hiN cultures treated with γ-secretase inhibitor; conditions: DAPT 10 μM; hiN cell cultures
Procedure: APP ELISA was performed using a human APP ELISA kit (Invitrogen, Camarillo, Calif.), according to the manufacturer's instruction. Absorbance was read on a VersaMax ELISA Microplate Reader (Molecular Devices, Inc. Sunnyvale, Calif.) at 450 nm. The amount of APP was normalized to the total cell protein (determined with the DC Protein Assay Reagent kit; Bio-Rad, Hercules, Calif.). sAPPIβ and Aβ ELISA were performed on supernatant media from hiN cell cultures at 21 days after viral transduction. […] was performed using BetaMarkTM sAPP Beta ELISA kit (Covance, Princeton, N.J.), according to the manufacturer's instruction. The chemiluminescence was read on a microplate luminometer ([…] Plus, TECAN, Männedorf Switzerland). Aβ quantification was performed by ELISA as described previously (Cirrito et al., 2003). Media was conditioned for 48 hr prior to harvesting. Samples were analyzed for Aβ40 or Aβ42 using specific sandwich ELISAs. Briefly, Aβ40, and Aβ42 were captured using monoclonal antibodies targeted against amino acids 35-40 (HJ2.0), or 33-42 (HJ7.4) of Aβ, respectively. The antibodies HJ2.0, HJ5.1 and HJ7.4 were gifts from David M. Holtzman. […] All assays were developed using Super Slow ELISA TMB (Sigma) and read on a VersaMax ELISA Microplate Reader (Molecular Devices, Inc. Sunnyvale, Calif.) at 650 nm. […]

[9] = system: APP-positive puncta in hiN cells; experiment: APP immunostaining of hiN cells, APP-positive puncta area per cell; conditions: DAPT 10 μM, 18 hr
Procedure: Cells were fixed in 4% paraformaldehyde for 10 min at room temperature, followed by rinsing 3 times with phosphate-buffered saline (PBS). Cells were then permeabilized with 0.1% Triton X-100 in 1×PBS for 10 min at room temperature. After again rinsing 3 times with PBS, cells were incubated with blocking buffer containing 10% goat serum and 10 mg/ml BSA at room temperature for 1 hr. All primary antibodies were diluted in PBS. Cells were incubated with primary antibodies as listed at 4° C. for 12-16 hr, followed by the corresponding secondary antibody solutions in 37° C. for 1 hr. Cells were rinsed with 1×PBS three times followed by mounting of coverslips with anti-fade solution (Invitrogen). […]
Imaging was performed by laser-scanning confocal microscopy with a 63×/1.4 objective (LSM510, Can Zeiss) or by epifluorescence microscope (Olympus 1×71; Japan). hiN cell counts and fluorescence intensities were quantified by taking 10 to 35 images of randomly selected views per well. Subsequently, images were analyzed for cell counts and fluorescent intensity using Image J 1.42q software (National Institute of Health, USA). […]

## NC1=N[C@H](O)[C@H]2[C@H]3O[C@]4(O)O[C@@H]([C@@H](O)[C@@]2(N1)[C@@H]4O)[C@]3(O)CO [tetrodotoxin]
[1]
  fast inward Na+ currents: sensitive
[2]
  depolarization-induced action potentials: could be inhibited; also recorded: could be blocked

## N[C@H](CCCP(=O)(O)O)C(=O)O [APV, D(−)-2-amino-5-phosphonovaleric acid]
[3]
  glutamate-mediated postsynaptic currents: could be blocked; also recorded: sensitive
[4]
  spontaneous excitatory postsynaptic currents (sEPSCs) under glutamatergic block: suppressed; also recorded: drastically reduced
[5]
  spontaneous postsynaptic currents in glial coculture: sensitive; also recorded: abolished

## CC(C)Cc1ccc(C(C)C(=O)O)cc1 (centres unmarked) [ibuprofen]
[6]; FAD (Presenilin mutant) hiN cell cultures
  increased Aβ40 and Aβ42 generation in FAD hiN cell cultures: failed to suppress; also recorded: resistant
[6]; SAD hiN cell cultures
  elevated levels of secreted Aβ40 and Aβ42 in SAD hiN cell cultures: suppressed

## NS(=O)(=O)c1cccc2c1c([N+](=O)[O-])cc1nc(O)c(O)nc12 [NBQX, 2,3-dihydroxy-6-nitro-7 sulphamoyl-benzo[f]quinoxaline-2,3-dione]
[3]
  glutamate-mediated postsynaptic currents: could be blocked; also recorded: sensitive
[4]
  spontaneous excitatory postsynaptic currents (sEPSCs) under glutamatergic block: suppressed; also recorded: drastically reduced
[5]
  spontaneous postsynaptic currents in glial coculture: sensitive; also recorded: abolished

## picrotoxin
[7]
  GABA evoked currents: sensitive
[4]; picrotoxin 50 μM
  frequency and amplitude of spontaneous excitatory postsynaptic currents (sEPSCs): increased in frequency and amplitude

## C[C@H](NC(=O)Cc1cc(F)cc(F)c1)C(=O)N[C@H](C(=O)OC(C)(C)C)c1ccccc1 [DAPT]
[8]
  production of Aβ in media: suppressed
[9]
  total APP-positive puncta area per cell, UND hiN cells: partially phenocopied; also recorded: significant increase
